Source: patent US9663496B2, “AMPK-activating heterocyclic compounds and methods for using the same” (Rigel Pharmaceuticals, Inc., priority 2010, dated 2017)

Target: AMPK
Experiment: AMPK activation, enzyme-linked immunosorbent assay
Type: biochemical
Details: EC50 for AMPK activation, ELISA
Procedure: Compounds were assayed for their ability to activate AMPK using an enzyme-linked immunosorbent assay. Reagents and procedures for measuring AMPK activation are well known and kits for AMPK activation assays are commercially available.

Compound | EC50 [nM]
CN1CCN(c2ccc(C(=O)C3CCN(C(=O)c4ccc(C(=O)NC5CCN(Cc6ccc(OC(F)(F)F)cc6)CC5)cn4)CC3)cc2)CC1 [Compound 244, 6-(4-(4-(4-methylpiperazin-1-yl)benzoyl)piperidine-1-carbonyl)-N-(1-(4-(trifluoromethoxy)benzyl)piperidin-4-yl)nicotinamide] | 5000 to 10000
N#Cc1ccc(OC2CCN(C(=O)c3ccc(C(=O)N[C@H]4CC[C@@H](Oc5ccc(C(F)(F)F)cc5)CC4)nc3)CC2)cc1 [Compound 193, 5-(4-(4-cyanophenoxy)piperidine-1-carbonyl)-N-((cis)-4-(4-(trifluoromethyl)phenoxy)cyclohexyl) picolinamide] | < 500
N#Cc1ccc(CN2CCC(NC(=O)c3cccc(C(=O)NC4CCN(Cc5ccc(C#N)cc5)CC4)n3)CC2)cc1 [Compound 86, N2,N6-bis(1-(4-cyanobenzyl)piperidin-4-yl)pyridine-2,6-dicarboxamide] | 1000 to 5000
O=C(NC1CCN(Cc2ccccc2)CC1)c1ccc(Nc2cccc(-c3ccccc3)c2)cn1 [Compound 114, N-(1-benzylpiperidin-4-yl)-5-(biphenyl-3-ylamino)picolinamide] | 1000 to 5000
CS(=O)(=O)c1ccc(OC2CCN(C(=O)c3ccc(C(=O)N[C@@H]4CCN(Cc5ccc(OC(F)(F)F)cc5)C[C@H]4F)nc3)CC2)cc1 (relative stereo) [Compound 255, N-((trans)-3-fluoro-1-(4-(trifluoromethoxy)benzyl)piperidin-4-yl)-5-(4-(4-(methylsulfonyl)phenoxy)piperidine-1-carbonyl)picolinamide] | < 500
N#Cc1ccc(CN2CCC(NC(=O)c3ccc(N4CCCC(Oc5ccc(C#N)cc5)C4)cn3)CC2)cc1 (centres unmarked) [Compound 265, N-(1-(4-cyanobenzyl)piperidin-4-yl)-5-(3-(4-cyanophenoxy)piperidin-1-yl)picolinamide] | 1000 to 5000
COc1ccc(C(=O)C2CCN(C(=O)c3ccc(C(=O)NCCOc4ccc(F)cc4)nc3)CC2)cc1 [Compound 305, N-(2-(4-fluorophenoxy)ethyl)-5-(4-(4-methoxybenzoyl)piperidine-1-carbonyl)picolinamide] | < 500
COc1ccc(OC2CCN(C(=O)c3ccc(C(=O)N[C@H]4CC[C@@H](Oc5ccc(C(F)(F)F)cc5)CC4)nc3)CC2)cc1 [Compound 191, 5-(4-(4-methoxyphenoxy)piperidine-1-carbonyl)-N-((cis)-4-(4-(trifluoromethyl)phenoxy)cyclohexyl) picolinamide] | < 500
N#Cc1ccc(CN2CCC(NC(=O)c3ccc(C(=O)N4CCC(Oc5ccc(F)cc5F)CC4)cn3)CC2)cc1 [Compound 282, N-(1-(4-cyanobenzyl)piperidin-4-yl)-5-(4-(2,4-difluorophenoxy)piperidine-1-carbonyl)picolinamide] | < 500
N#Cc1ccc(CN2CCC(NC(=O)c3ccc(C(=O)N4CCN(c5ccc(S(=O)(=O)C6CC6)cc5)CC4)cn3)CC2)cc1 [Compound 256, N-(1-(4-cyanobenzyl)piperidin-4-yl)-5-(4-(4-(cyclopropylsulfonyl)phenyl)piperazine-1-carbonyl)picolinamide] | < 500
O=C(Nc1ccc(Br)cc1)c1ccc(C(=O)N2CCN(Cc3ccc(F)cc3)CC2)cn1 [Compound 28, N-(4-bromophenyl)-5-(4-(4-fluorobenzyl)piperazine-1-carbonyl)picolinamide] | 500 to 1000
N#Cc1ccc(CN2CCC(NC(=O)c3ccc(C(=O)N4CCN(c5ccc(S(=O)(=O)C(F)(F)F)cc5)CC4)cn3)CC2)cc1 [Compound 257, N-(1-(4-cyanobenzyl)piperidin-4-yl)-5-(4-(4-(trifluoromethylsulfonyl)phenyl)piperazine-1-carbonyl)picolinamide] | < 500
COc1cccc(OC2CCCN(C(=O)c3ccc(C(=O)NC4CCN(Cc5ccc(C#N)cc5)CC4)nc3)C2)c1 (centres unmarked) [Compound 277, N-(1-(4-cyanobenzyl)piperidin-4-yl)-5-(3-(3-methoxyphenoxy)piperidine-1-carbonyl)picolinamide] | < 500
O=C(NC1CCN(Cc2cc(F)cc(F)c2)CC1)c1ccc(C(=O)N2CCC(Oc3ccc(F)c(F)c3)CC2)cn1 [Compound 297, N-(1-(3,5-difluorobenzyl)piperidin-4-yl)-5-(4-(3,4-difluorophenoxy)piperidine-1-carbonyl)picolinamide] | < 500

The next lines start with the values.

EC50 [nM] | Compound
< 500 | COc1ccc(N2CCC(NC(=O)c3ccc(C(=O)N4CCN(Cc5ccc(F)cc5)CC4)nc3)CC2)cc1 [Compound 405, 6-(4-(4-fluorobenzyl)piperazine-1-carbonyl)-N-(1-(4-methoxyphenyl)piperidin-4-yl)nicotinamide]
< 500 | N#Cc1ccc(CN2CCC(NC(=O)c3ccc(C(=O)N4CCC(Oc5ccc(NC(=O)C6CC6)cc5)CC4)nc3)CC2)cc1 [Compound 409, N-(1-(4-cyanobenzyl)piperidin-4-yl)-6-(4-(4-(cyclopropane-carboxamido)phenoxy)piperidine-1-carbonyl)nicotinamide]
< 500 | N#Cc1ccc(CN2CCC(NC(=O)c3ccc(C(=O)N4CCC(Oc5ccc(C#N)cc5)CC4)nc3)CC2)cc1 [Compound 323, N-(1-(4-cyanobenzyl)piperidin-4-yl)-6-(4-(4-cyanophenoxy)piperidine-1-carbonyl)nicotinamide]
1000 to 5000 | O=C(Nc1ccc(Oc2ccc(F)cc2)nc1)c1ccc(C(=O)N2CCC(Oc3ccc(NS(=O)(=O)C4CC4)cc3)CC2)nc1 [Compound 449, 6-(4-(4-(cyclopropanesulfonamido)phenoxy)piperidine-1-carbonyl)-N-(6-(4-fluorophenoxy)pyridin-3-yl)nicotinamide]
> 10000 | N#Cc1ccc(-c2nnc3n2CCN(C(=O)c2ccc(C(=O)NC4CCN(Cc5cc(F)cc(F)c5)CC4)nc2)C3)cc1 [Compound 314, 5-(3-(4-cyanophenyl)-5,6,7,8-tetrahydro-[1,2,4]triazolo[4,3-a]pyrazine-7-carbonyl)-N-(1-(3,5-difluorobenzyl)piperidin-4-yl)picolinamide]
1000 to 5000 | COc1ccc(C(=O)C2CCN(C(=O)c3ccc(C(=O)NC4CCN(Cc5ccc(N)cc5)CC4)cn3)CC2)cc1 [Compound 400, N-(1-(4-aminobenzyl)piperidin-4-yl)-6-(4-(4-methoxybenzoyl)piperidine-1-carbonyl)nicotinamide]
1000 to 5000 | COc1ccc(OC2CCN(C(=O)c3ccc(C(=O)NC4CCN(Cc5ccc(C#N)cc5)CC4)cn3)CC2)c(NS(C)(=O)=O)c1 [Compound 389, N-(1-(4-cyanobenzyl)piperidin-4-yl)-6-(4-(4-methoxy-2-(methylsulfonamido)phenoxy)piperidine-1-carbonyl)nicotinamide]
< 500 | COc1ccc(CN2CCC(NC(=O)c3ccc(C(=O)N4CCN(Cc5ccc(F)cc5)CC4)nc3)CC2)cc1 [Compound 327, 6-(4-(4-fluorobenzyl)piperazine-1-carbonyl)-N-(1-(4-methoxybenzyl)piperidin-4-yl)nicotinamide]
< 500 | COc1ccc(CN2CCC(N(C)C(=O)c3ccc(C(=O)N4CCC(C(=O)c5ccc(OC)cc5)CC4)nc3)CC2)cc1 [Compound 484, 6-(4-(4-methoxybenzoyl)piperidine-1-carbonyl)-N-(1-(4-methoxybenzyl)piperidin-4-yl)-N-methylnicotinamide]
1000 to 5000 | CS(=O)(=O)c1ccc(N2CCC(NC(=O)c3ccc(C(=O)N4CCC(Oc5ccc(C#N)cc5)CC4)nc3)CC2)cc1 [Compound 420, 6-(4-(4-cyanophenoxy)piperidine-1-carbonyl)-N-(1-(4-(methylsulfonyl)phenyl)piperidin-4-yl)nicotinamide]
< 500 | N#Cc1ccc(Oc2ccc(NC(=O)c3ccc(C(=O)N4CCC(Oc5ccc(S(F)(F)(F)(F)F)cc5)CC4)nc3)cn2)cc1 [Compound 497, N-(6-(4-cyanophenoxy)pyridin-3-yl)-6-(4-(4-(pentafluorosulfanyl)phenoxy)piperidine-1-carbonyl)nicotinamide]
500 to 1000 | CC(=O)Nc1ccc(OC2CCN(C(=O)c3ccc(C(=O)NC4CCN(Cc5cccc(OC(F)(F)F)c5)CC4)cn3)CC2)cc1 [Compound 428, 6-(4-(4-acetamidophenoxy)piperidine-1-carbonyl)-N-(1-(3-(trifluoromethoxy)benzyl)piperidin-4-yl)nicotinamide]
< 500 | COc1ccc(CN2CCC(NC(=O)c3ccc(C(=O)N4CCC(Oc5ccc(F)cc5F)CC4)nc3)CC2)cc1 [Compound 344, 6-(4-(2,4-difluorophenoxy)piperidine-1-carbonyl)-N-(1-(4-methoxybenzyl)piperidin-4-yl)nicotinamide]
< 500 | N#Cc1ccc(CN2CCC(NC(=O)c3ccc(C(=O)N4CCC(C(=O)c5ccc(F)cc5F)CC4)nc3)CC2)cc1 [Compound 346, N-(1-(4-cyanobenzyl)piperidin-4-yl)-6-(4-(2,4-difluorobenzoyl)piperidine-1-carbonyl)nicotinamide]
< 500 | N#Cc1ccc(CN2CCC(NC(=O)c3ccc(C(=O)N4CCC(Oc5ccc(SC(F)(F)F)cc5)CC4)nn3)CC2)cc1 [Compound 436, N-(1-(4-cyanobenzyl)piperidin-4-yl)-6-(4-(4-(trifluoromethylthio)phenoxy)piperidine-1-carbonyl)pyridazine-3-carboxamide]
< 500 | N#Cc1ccc(O[C@H]2CC[C@@H](NC(=O)c3ccc(C(=O)N4CCC(C(=O)c5ccc(N6CCCC6)cc5)CC4)nc3)CC2)cc1 [Compound 442, N-((cis)-4-(4-cyanophenoxy)cyclohexyl)-6-(4-(4-(pyrrolidin-1-yl)benzoyl)piperidine-1-carbonyl)nicotinamide]
< 500 | CN(C)C(=O)c1ccc(Oc2ccc(NC(=O)c3ccc(C(=O)N4CCC(C(=O)c5ccc(F)cc5F)CC4)nc3)cn2)cc1 [Compound 481, 6-(4-(2,4-difluorobenzoyl)piperidine-1-carbonyl)-N-(6-(4-(dimethylcarbamoyl)phenoxy)pyridin-3-yl)nicotinamide]
< 500 | N#Cc1ccc(CN2CCC(NC(=O)c3ccc(C(=O)N4CCC(C(=O)c5ccc(N6CCCC6)cc5)CC4)nc3)CC2)cc1 [Compound 377, N-(1-(4-cyanobenzyl)piperidin-4-yl)-6-(4-(4-(pyrrolidin-1-yl)benzoyl)piperidine-1-carbonyl)nicotinamide]
